Compound	melting point
COC(=O)NC=Cc1ccc(OCC(O)CNC(C)CC#N)cc1 (centres undefined)	122 to 123 °C
CC(=O)c1cccc(Oc2ncccc2C(=O)NCc2ccc(S(N)(=O)=O)cc2)c1	162 to 164 °C
COc1cc(OC)nc(Oc2ccccc2C=O)n1	81 °C
CCCSc1nc(C)c(CC(=O)O)n1-c1ccccc1Cl	68 to 71 °C
CCN(CCCc1c[nH]c2c(OC)cccc12)C1COc2c(F)ccc(C(N)=O)c2C1 (centres undefined)	148 to 153 °C
CC(C)n1cc(C(=O)C(F)(F)F)c2ccc(C(F)(F)F)cc21	92 to 93 °C
COC(=O)CCCCCOc1ccc(NC(=O)CO)cc1	91.5 to 94 °C
O=C(O)C(Cl)C1c2c(Cl)c(Cl)c(Cl)c(Cl)c2C(Cl)(Cl)C1(Cl)Cl (centres undefined)	214 to 216 °C
O=C(O)c1nn(-c2ccc(Cl)cc2Cl)c2c1CCCC2	239 to 240 °C
OP(O)C(NC(c1ccccc1)c1ccccc1)c1cccs1 (centres undefined)	201 °C
Cc1cn2nc(-c3ccccc3)nc2cc1NC(=O)c1c(C(=O)N2CCC2)cnn1C	226 to 228 °C
COc1cc(C(C)C)c2c(c1)S(=O)(=O)N(COc1cc(C(=O)O)nn1-c1ccccc1)C2=O	193 to 194 °C
CC(C)(C)OC(=O)NN=Cc1cccc(C#N)c1	115 to 158 °C
CC(C)c1cccc(C(C)C)c1NC(=O)CN1CCN(CCOc2nc3ccccc3[nH]2)CC1	205 to 206 °C
CCOC(=O)c1ccc2[nH]cc(C3CCN(C)CC3)c2c1	155 to 157 °C
O=C(O)c1cc(Cl)c(Cl)cc1C(=O)Nc1cccc(-c2ccnc3c(C(=O)c4cccs4)cnn23)c1	> 270 °C
O=C(O)Cc1ccccc1SCc1cc(F)ccc1F	106 to 108 °C
O=C(O)c1ccc(NCc2cccc(C(F)(F)F)c2)cn1	216 to 217 °C
CC(C)(CC(=O)O)C(Br)CC(Cl)(Cl)Cl (centres undefined)	123 to 124 °C
C/C=C/CC(=O)N[C@H]1CC[C@H](CCN2CCC(c3cccc4c3CCO4)CC2)CC1	196 °C
O=[N+]([O-])c1ccc(OC2SCC(O)C(O)C2O)cc1 (centres undefined)	130 to 132 °C
CCCCCCCC(=O)NCc1ccsc1	71 to 72 °C
CC(C)N1CCN(C(=O)OC2C3=C(SCCS3)C(=O)N2c2ccc(Cl)cn2)CC1 (centres undefined)	130 to 135 °C
CC1(C)COC(=O)C1=O	61 to 64 °C
CC(=O)c1ccsc1C(=O)O	155 to 156 °C
Cc1ccccc1C(=O)NC(n1cncn1)C(Cl)(Cl)CCl (centres undefined)	133 to 137 °C
Cc1c(C)c2c(c(C)c1O)SC(C)O2 (centres undefined)	125 to 127 °C
Cc1ccc(S(=O)(=O)NC(=O)n2sc(Cl)cc2=O)cc1	125 to 128 °C

Compound	melting point
CCn1cc(C(=O)O)c(=O)c2cc(F)c(N3CCNC(c4cc5ccccc5o4)C3)cc21 (centres undefined)	226 to 228 °C
COc1c(C2CCN(CCCCNC(=O)c3ccc(-c4ccc(Cl)cc4)c(OCC(N)=O)c3)CC2)ccc2c1CCCC2	198 °C
COc1ccc([C@@H]2Sc3ccccc3N(CCN(C)C)C(=O)[C@@H]2O)cc1 (relative stereo)	88 to 90 °C
O=C1CCC(c2ccc(Br)cc2)CC1	59.4 to 61.4 °C
CCC(=O)Oc1cccc2c1C(=O)c1c(O)cccc1C2C(=O)CC (centres undefined)	125 °C
CN1C(=O)N(c2ccc(C(=O)O)cc2)S(=O)(=O)c2ccc(OCC3CCCCC3)cc21	240 to 241 °C
COc1ccc(C(=O)Nc2c(Cl)cncc2Cl)cc1OC1CCCC1	153 to 155 °C
CC1(c2cccc(N)c2)C2CN(Cc3ccccc3)C(=O)C21 (centres undefined)	150 to 151 °C
CN(C)CCNc1c2c(nc3ccccc13)CCCC2O (centres undefined)	135 to 138 °C
O=C1c2ccc(Cl)cc2CC1S(=O)(=O)c1ccccc1 (centres undefined)	133 °C
O=C(Cl)N1CCOCC1	138 to 139 °C
COc1ccc(CCCc2nnc(-c3ccc4occc4c3)o2)cc1	116 to 117 °C
CCOC(=O)C1=Cc2cc(C(F)(F)C(F)(F)F)ccc2OC1C(F)(F)F (centres undefined)	162 to 165 °C
O=C1COCc2cc(Br)ccc21	144 to 146 °C
O=C1N[C@H](Cc2ccc(C(F)(F)F)cc2)[C@H](c2cccc(F)c2)O1 (racemic)	143 to 144 °C
Oc1ncnc2c1cnn2C1OC(COCc2ccccc2)C(OCc2ccccc2)C1OCc1ccccc1 (centres undefined)	204 °C
CN[C@H]1CCN(c2c(-c3ccccc3)c(C)c(C#N)c3nc(C(=O)N(C)C)oc23)C1	148 to 151 °C
CC(C)Cn1cnc2c(Br)c(NC3=NCCN3)ccc21	226 to 227 °C
COC(=S)Cc1ccc(C(=O)CN2CCN(c3ccncc3)CC2)cc1	109 to 110 °C
C=CC(=O)N1CC(c2ccccc2)c2ccccc21 (centres undefined)	77 to 78 °C
CC(C)c1cc(C(C)C)c(CC(=O)NS(=O)(=O)Oc2c(C(C)C)cc(N)cc2C(C)C)c(C(C)C)c1	153 to 155 °C
Cc1nn(C)c2c1N(C(=O)CN1CCCC1)c1ccccc1NC2=O	114 to 116 °C
O=C(Nc1ccc(C(=O)c2ccccc2)cc1)c1cc(Cl)cc(Cl)c1	219 to 220 °C
CCN(CC)CC1CCCCN1CCNC(=O)N1c2ccccc2NC(=O)c2cccnc21 (centres undefined)	146 to 148 °C
CNC(=O)c1ccc(N2CCN(Cc3cnc4c(c3)[nH]c(=O)n3cccc43)CC2)cc1	286 to 289 °C
CCCc1nc2nccc(C)c2[nH]1	110 to 112 °C
CNC(=O)c1cccc(NC(=O)CCc2ccccc2)c1	142 to 143 °C

The next lines start with the values.

melting point	Compound
148 to 149 °C	COc1ccc2c(Cc3ccco3)nnc(N3CCCC3)c2c1
76 to 78 °C	CCCCCS(=O)(=O)NC(=O)C(Cc1ccc(OCCOC)cc1Oc1ncc(C(F)(F)F)cc1Cl)OC (centres undefined)
207 to 209 °C	CCCc1c(COc2ccc(C(=O)Cc3nnn[nH]3)cc2)ccc(C(C)=O)c1O
136 to 139 °C	CC(C)c1cc(CC2SCNC2=O)cc(C(C)C)c1O (centres undefined)
205 to 206 °C	COc1c(C)c(Cl)c(C)c(Cl)c1CNC(=O)CCl
229 to 230 °C	CC(C)(C)c1ccc(C(=O)Nc2cn3c(CO)cccc3n2)cc1
120 to 121 °C	CCOC(=O)C1=CC2(CCC1S(=O)(=O)Nc1ccc(F)cc1Cl)OCCCO2 (centres undefined)
192 to 193 °C	CCOC(=O)N1CC2CCN(c3c(F)cc4c(=O)c(C(=O)O)cn(C5CC5)c4c3F)C2C1 (centres undefined)
237 to 241 °C	O=C(NC(=O)c1c(F)cccc1F)Nc1ccc(-c2ccc(Cl)cc2)c(Cl)n1
244 to 245 °C	Cc1c(N2C[C@@H]3CCCN[C@@H]3C2)c(F)cc2c(=O)c(C(=O)O)cn([C@@H]3C[C@@H]3F)c12
266 to 268 °C	CCc1ccc2[nH]c3c(=O)n(CCN(C)C)c4ccccc4c3c2c1
79 to 80 °C	COc1ccc(Cn2c(=O)cc(C(F)(F)F)n(C)c2=O)cc1
146 °C	Cc1ccc(-c2cc(OCC(=O)N3CCOCC3)c3ccccc3n2)cc1
88 to 90 °C	CC(=O)NC(CC=Cc1ccccc1)(COC(C)=O)COC(C)=O
176 to 177 °C	COC(=O)Nc1cccc(C)c1COc1cccn2c(C)c(C)nc12
66 to 67 °C	CCOc1nn(-c2ccccn2)cc1CCCOc1cccc(CC(=O)O)c1
32 to 34 °C	COc1ccc(CC#N)cc1OC1CCCC1
132 to 135 °C	C=Cc1cc(C)cc(C)c1C1=C(O)C2(CCN(OC)CC2)N(OC2CCCO2)C1=O (centres undefined)
170 °C	Oc1ccc(N2CCN(c3nccs3)CC2)cc1
233 to 235 °C	O=C1CC(COC(c2ccccc2)(c2ccccc2)c2ccccc2)=NC=C1OCc1ccccc1
84 to 86 °C	COCCCN(C(=O)N(CCCl)N=O)C1(O)C(OCC(C)C)OCC(O)C1O (centres undefined)
180 °C	N#Cc1ccc(O[C@@H]2c3ncccc3C[C@H]2N2CCC[C@@H](N)C2)c(Cl)c1

melting point	Compound
102 to 104 °C	CCOc1cc2ncc(C#N)c(Nc3ccc(OCc4ccccc4)c(Cl)c3)c2cc1NC(=O)CC(CN(C)C)N(C)C (centres undefined)
151 to 154 °C	Cc1cc2c(c(C(C)(C)C)c1)OC(=O)C2OC(=O)CCc1cc(C(C)(C)C)c(O)c(C(C)(C)C)c1 (centres undefined)
210 to 212 °C	O=C(NC(Cc1ccccc1[N+](=O)[O-])c1ccccc1)C1CCCCC1 (centres undefined)
130 to 132 °C	COc1cc2c(c(Cl)c1Cl)C(=O)C(CCCCl)C2 (centres undefined)
79 to 81 °C	CCOC(=O)Cn1ncc(-c2ccccc2)c1-c1ccccc1
94 to 96 °C	CCCN1CCC(c2c(O)cc(O)c3c(=O)cc(-c4ccccc4Cl)oc23)C1CO (centres undefined)
215 to 216 °C	Nc1nnc(-c2ccc3ncn(-c4cccc(OC(F)(F)F)c4)c3c2)o1
200 to 201 °C	CC(C(=O)c1c(O)c2cccnc2n(-c2cccc(C(F)(F)F)c2)c1=O)c1ccccc1 (centres undefined)
75 to 77 °C	Cc1ccc(C)n1CCNC(=O)COc1ccc(Cl)cc1
117 to 119 °C	CCOC(=O)c1c(N)sc(-c2ccc([N+](=O)[O-])cc2)c1C
75 to 80 °C	Cc1cc(C(Cc2ccc(CCCc3nc(-c4ccccc4)oc3C)cc2)C(=O)O)no1 (centres undefined)
119 to 121 °C	COC(=O)CCC1=NC=C(c2ccc3c(c2)NC(=O)CO3)C(c2ccccc2)S1 (centres undefined)
144 °C	CN(C)Cc1ccc(/C=C/C(=O)O)cn1
252 °C	O=C(Cc1ccccc1)Nc1ccc(NC(=O)OCc2ccccc2)c(O)c1
271 °C	COc1ccc(-c2cc(-c3nc(C)cs3)c(=O)n(C)c2-c2ccnnc2)cc1
201 to 203 °C	CNC(=O)c1ccc(C)c(-n2c(C)cc(OCc3ccccc3CNC(=O)Nc3cc(C(C)(C)C)nn3-c3ccc(O)c(Cl)c3)c(Cl)c2=O)c1
141 to 142 °C	NC(=O)CCSC(SCCC(=O)O)c1cccc(SCc2ccc3ccc(Cl)cc3n2)c1 (centres undefined)
130 to 131 °C	CCCC(=O)c1ccc(-c2ncccc2S(=O)(=O)Nc2ncc(C)nc2OC)cc1
222 to 224 °C	CCNCC1CCN(c2c(F)cc3c(=O)c(C(=O)O)cn(CC(F)(F)F)c3c2F)C1 (centres undefined)
136 to 137 °C	CCC(CCCN)Nc1cc(OC)c(OC)c2c(C)ccnc12 (centres undefined)
85 °C	CCCCCCCCCCCCCCCCCCOC(=O)N(C)CC(O)C(O)C(O)C(O)CO (centres undefined)
264 to 265 °C	COc1ccc2sc3c(c2c1)OCCNC3=O
